The source of these data is patent US10757937B2, “Sulfonamides that activate ABA receptors” (The Regents of the University of California, priority 2014, dated 2020).

The structures appear in SMILES notation. Read-outs that look alike come from different tables or passages of the source.

Assay [1] addresses T1, PYL4 (Arabidopsis thaliana, UniProt O80920).
T1 construct: 6X-His; made in house; host or cells: E. coli BL21[DE3]pLysS
T1 sequence (O80920 1-207): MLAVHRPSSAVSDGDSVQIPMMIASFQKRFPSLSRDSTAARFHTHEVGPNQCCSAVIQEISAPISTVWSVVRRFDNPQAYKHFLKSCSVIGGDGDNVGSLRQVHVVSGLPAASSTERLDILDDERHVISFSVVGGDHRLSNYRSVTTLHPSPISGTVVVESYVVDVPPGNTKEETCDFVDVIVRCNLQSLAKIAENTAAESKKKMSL
T1 sequence (Q9CAJ0 23-511 partner): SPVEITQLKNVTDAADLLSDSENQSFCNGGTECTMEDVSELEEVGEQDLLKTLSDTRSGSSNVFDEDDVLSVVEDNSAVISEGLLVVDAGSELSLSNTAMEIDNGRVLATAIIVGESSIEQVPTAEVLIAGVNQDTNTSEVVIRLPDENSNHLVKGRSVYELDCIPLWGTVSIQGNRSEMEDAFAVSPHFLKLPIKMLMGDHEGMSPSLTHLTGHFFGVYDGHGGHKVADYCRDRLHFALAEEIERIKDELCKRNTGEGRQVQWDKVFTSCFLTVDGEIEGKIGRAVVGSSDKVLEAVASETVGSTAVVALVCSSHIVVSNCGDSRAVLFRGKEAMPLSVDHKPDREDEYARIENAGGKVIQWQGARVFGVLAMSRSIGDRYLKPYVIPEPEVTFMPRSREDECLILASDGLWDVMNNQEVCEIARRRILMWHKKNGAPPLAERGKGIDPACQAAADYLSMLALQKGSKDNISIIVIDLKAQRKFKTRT
Briefly: receptor-mediated PP2C (HAB1) inhibition in vitro assay. Format: biochemical. The procedure, abridged: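 Compounds, tested at 25 μM or 50 uM with ABA at 10 uM, were incubated with recombinant receptor and 50 nM GST-HAB1 (2:1 ratio) in MnCl2-containing Tris-OAc buffer, pH 7.9. Phosphatase activity was followed by 4-methylumbelliferyl-phosphate fluorescence.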

Assay [2] has as its target T2, PYL8 (Arabidopsis thaliana, UniProt Q9FGM1).
T2 construct: 6X-His; made in house; host or cells: E. coli BL21[DE3]pLysS
T2 sequence (Q9FGM1 1-188): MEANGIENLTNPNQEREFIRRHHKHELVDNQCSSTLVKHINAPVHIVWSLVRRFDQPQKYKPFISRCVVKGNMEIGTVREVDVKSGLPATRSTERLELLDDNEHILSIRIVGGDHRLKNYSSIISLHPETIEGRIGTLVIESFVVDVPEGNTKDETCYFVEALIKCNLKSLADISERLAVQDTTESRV
T2 sequence (Q9CAJ0 23-511 partner): T1 sequence (Q9CAJ0 23-511 partner)
Described as above. Format: biochemical. The procedure, abridged: (§1)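 Fluorogenic readout: 4-methylumbelliferyl-phosphate hydrolysis by 50 nM GST-HAB1 plus 2:1 His-receptor; Tris-OAc pH 7.9, NaCl, 1 mM MnCl2, β-ME. Compounds at 25 μM or 50 uM single dose; IC50 from dose curves for selected compounds.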

For assay [3], the target named is T3, PYL6 (Arabidopsis thaliana, UniProt Q8S8E3).
T3 construct: 6X-His; made in house; host or cells: E. coli BL21[DE3]pLysS
T3 sequence (Q8S8E3 1-215): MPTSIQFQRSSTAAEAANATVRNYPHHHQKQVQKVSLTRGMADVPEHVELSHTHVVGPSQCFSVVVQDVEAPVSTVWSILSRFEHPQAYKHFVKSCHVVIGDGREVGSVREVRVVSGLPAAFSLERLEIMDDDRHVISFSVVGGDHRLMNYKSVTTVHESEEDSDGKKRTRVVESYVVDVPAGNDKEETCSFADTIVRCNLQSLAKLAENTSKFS
T3 sequence (Q9CAJ0 23-511 partner): T1 sequence (Q9CAJ0 23-511 partner)
The assay is described as above. The format is biochemical. To be noted: 50 uM of the test compound. The procedure, abridged: as §1

For assay [4], the system named is Arabidopsis seed germination and hypocotyl growth. The assay can be described thus: Arabidopsis seed germination and hypocotyl growth. Format: in vivo. The following applies: Arabidopsis thaliana, Germination Effects III, tested at 1, 5, 10, 25 and 50 uM, — = none. In short, it runs like this:
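Wild-type seeds germinated on ½× Murashige and Skoog medium with compound at 10 and 50 uM, or in a later series at 1, 5, 10, 25 and 50 uM. Reported value is the lowest tested concentration that inhibited germination or hypocotyl growth in wells where seeds germinated.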

As for `CC1(C)CCC(C(=O)NS(=O)(=O)Cc2ccc(C#N)cc2)(c2ccc(F)cc2)CC1` [Compound 68, N-[(4-Cyanophenyl)methanesulfonyl]-1-(4-fluorophenyl)-4,4-dimethylcyclohexane-1-carboxamide], the remaining activity (in general, the signal under treatment as a percentage of the control signal) at 50 µM in assay [1] (50 uM of the test compound) worked out at 94%; in assay [2] (50 uM of the test compound), 57.5%; in assay [3] it was 46.6%. Further, the concentration for half-maximal inhibition (IC50) (in general, the concentration that gives 50% inhibition) in assay [1] (Table XII-B, calculated from dose curves, read-out: PP2C Activity (IC50 in uM) PYL4) was more than 50 µM; in assay [2] (Table XII-B, calculated from dose curves, read-out: PP2C Activity (IC50 in uM) PYL8), more than 50 µM. Moreover, the minimal effective concentration in assay [4] (lowest concentration inhibiting hypocotyl growth, read-out: Growth Inhibition) is 10 µM; in assay [4] (lowest inhibiting concentration, read-out: Germination Inhibition), 25 µM.
